Assay results reported in US11517577B2, “Fluorinated bile acid derivatives” (NZP UK LIMITED, priority 2018, dated 2022).

Biological target: T1, Human Farnesoid X Receptor (NR1H4, FXR) (Homo sapiens, UniProt Q96RI1)
T1 sequence (Q96RI1 1-486): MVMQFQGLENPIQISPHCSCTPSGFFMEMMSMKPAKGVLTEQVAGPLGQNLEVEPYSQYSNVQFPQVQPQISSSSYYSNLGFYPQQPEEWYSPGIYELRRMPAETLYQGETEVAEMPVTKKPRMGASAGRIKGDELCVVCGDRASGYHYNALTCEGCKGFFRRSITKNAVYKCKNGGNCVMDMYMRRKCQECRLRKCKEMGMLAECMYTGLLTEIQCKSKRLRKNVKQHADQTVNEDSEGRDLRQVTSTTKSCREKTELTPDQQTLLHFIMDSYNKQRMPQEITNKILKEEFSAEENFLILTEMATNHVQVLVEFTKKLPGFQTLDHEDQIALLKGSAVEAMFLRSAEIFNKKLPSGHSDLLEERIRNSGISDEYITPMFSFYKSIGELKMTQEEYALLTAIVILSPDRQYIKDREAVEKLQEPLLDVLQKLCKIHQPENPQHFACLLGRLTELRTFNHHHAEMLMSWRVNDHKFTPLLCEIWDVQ
Experiment: FXR reporter assay, EC50 and efficacy (Indigo Biosciences luciferase reporter cells)
Format: cell-based
Conditions: for Efficacy: maximum point on the dose response curve, GW4064 designated as 100%
Experimental: The compounds of the invention were assayed for agonist activity at the FXR receptor.
Dose-response assays were performed as described in the technical manual of the Human Farnesoid X Receptor (NR1H4, FXR) Reporter Assay System (Indigo Biosciences Human Farnesoid X Receptor (NR1H4, FXR) Reporter Assay System, Technical Manual (version 7.1b), at the World Wide Web (www)indiqobiosciences.com).
FXR reporter cells consisting of an FXR-responsive promoter gene functionally linked to the luciferase gene were defrosted and seeded into a 96-well plate and these cells were immediately dosed with the test compounds at different concentrations (10-0.05 μM) according to the manufacturer's protocol. […] Following this, the induction of luciferase activity, which is the measure of the agonist activity, was quantified by using luminometer (TECAN) according to the manufacturer's protocol.

SMILES	EC50 [nM]	Efficacy [%]
CC[C@H]1[C@@H](O)C2C3CCC([C@H](C)CCNC(=O)NS(=O)(=O)c4ccccc4)[C@@]3(C)CCC2[C@@]2(C)CC[C@@H](O)C[C@@H]12 (stereo partly drawn) [Comparative compound A, N,N′-(3α,7α-Dihydroxyl-6α-ethyl-24-nor-5β-cholan-23-yl)-benzene sulfonyl urea, reference compound]	32	147
CC[C@H]1[C@@H](O)[C@@H]2[C@H](CC[C@]3(C)[C@@H]([C@H](C)CCC(=O)NS(C)(=O)=O)CC[C@@H]23)[C@@]2(C)CC[C@@H](O)[C@H](F)[C@@H]12 [Comparative compound C, N-(3α,7α-Dihydroxyl-4β-fluoro-6α-ethyl-5β-cholan-24-oyl)-methyl sulfonamide, reference compound]	192	130
CC[C@H]1[C@@H](O)[C@@H]2[C@H](CC[C@]3(C)[C@@H]([C@H](C)CCC(=O)NS(=O)(=O)c4ccccc4F)CC[C@@H]23)[C@@]2(C)CC[C@@H](O)[C@H](F)[C@@H]12 [Compound 17, N-(3α,7α-Dihydroxyl-4β-fluoro-6α-ethyl-5β-cholan-24-oyl)-o-fluorophenyl sulfonamide]	34	121
CC[C@@H]1[C@@H]2[C@@H](F)[C@H](O)CC[C@]2(C)C2CC[C@@]3(C)C(CCC3[C@H](C)CCNC(=O)NS(=O)(=O)c3ccc(C(F)(F)F)cc3)C2[C@@H]1O (stereo partly drawn) [Compound 9, N,N′-(3α,7α-Dihydroxyl-4β-fluoro-6α-ethyl-24-nor-5β-cholan-23-yl)-p-(trifluoromethyl)benzene sulfonyl urea]	50	158
CC[C@@H]1[C@@H]2[C@@H](F)[C@H](O)CC[C@]2(C)C2CC[C@@]3(C)C(CCC3[C@H](C)CCNC(=O)NS(=O)(=O)c3ccccc3F)C2[C@@H]1O (stereo partly drawn) [Compound 8, N,N′-(3α,7α-Dihydroxyl-4β-fluoro-6α-ethyl-24-nor-5β-cholan-23-yl)-o-fluorobenzene sulfonyl urea]	43	159
CC[C@H]1[C@@H](O)[C@@H]2[C@H](CC[C@]3(C)[C@@H]([C@H](C)CCC(=O)NS(=O)(=O)c4ccc(F)cc4)CC[C@@H]23)[C@@]2(C)CC[C@@H](O)[C@H](F)[C@@H]12 [Compound 15, N-(3α,7α-Dihydroxyl-4β-fluoro-6α-ethyl-5β-cholan-24-oyl)-p-fluorobenzene sulfonamide]	38	98
CC[C@@H]1[C@@H]2[C@@H](F)[C@H](O)CC[C@]2(C)C2CC[C@@]3(C)C(CCC3[C@H](C)CCNC(=O)NS(=O)(=O)c3cccc(C)c3)C2[C@@H]1O (stereo partly drawn) [Compound 4, N,N′-(3α,7α-Dihydroxyl-4β-fluoro-6α-ethyl-24-nor-5β-cholan-23-yl)-m-toluene sulfonyl urea]	23	148
CC[C@@H]1[C@@H]2[C@@H](F)[C@H](O)CC[C@]2(C)C2CC[C@@]3(C)C(CCC3[C@H](C)CCNC(=O)NS(=O)(=O)c3ccccc3C(F)(F)F)C2[C@@H]1O (stereo partly drawn) [Compound 11, N,N′-(3α,7α-Dihydroxyl-4β-fluoro-6α-ethyl-24-nor-5β-cholan-23-yl)-o-(trifluoromethyl)benzene sulfonyl urea]	123	104
CC[C@@H]1[C@@H]2[C@@H](F)[C@H](O)CC[C@]2(C)C2CC[C@@]3(C)C(CCC3[C@H](C)CCNC(=O)NS(=O)(=O)c3ccc(OC(F)(F)F)cc3)C2[C@@H]1O (stereo partly drawn) [Compound 12, N,N′-(3α,7α-Dihydroxyl-4β-fluoro-6α-ethyl-24-nor-5β-cholan-23-yl)-4-(trifluoromethoxy)benzene sulfonyl urea]	27	176
CC[C@@H]1[C@@H]2[C@@H](F)[C@H](O)CC[C@]2(C)C2CC[C@@]3(C)C(CCC3[C@H](C)CCNC(=O)NS(=O)(=O)c3ccc(OC)cc3)C2[C@@H]1O (stereo partly drawn) [Compound 13, N,N′-(3α,7α-Dihydroxyl-4β-fluoro-6α-ethyl-24-nor-5β-cholan-23-yl)-p-methoxybenzene sulfonyl urea]	48	250
CC[C@@H]1[C@@H]2[C@@H](F)[C@H](O)CC[C@]2(C)C2CC[C@@]3(C)C(CCC3[C@H](C)CCNC(=O)NS(=O)(=O)c3ccc(C(C)(C)C)cc3)C2[C@@H]1O (stereo partly drawn) [Compound 3, N,N′-(3α,7α-Dihydroxyl-4β-fluoro-6α-ethyl-24-nor-5β-cholan-23-yl)-4-(tert-butyl) benzene sulfonyl urea]	19	151
CC[C@@H]1[C@@H]2[C@@H](F)[C@H](O)CC[C@]2(C)C2CC[C@@]3(C)C(CCC3[C@H](C)CCNC(=O)NS(=O)(=O)c3ccccc3C)C2[C@@H]1O (stereo partly drawn) [Compound 5, N,N′-(3α,7α-Dihydroxyl-4β-fluoro-6α-ethyl-24-nor-5β-cholan-23-yl)-o-toluene sulfonyl urea]	28	166
CC[C@H]1[C@@H](O)[C@@H]2[C@H](CC[C@]3(C)[C@@H]([C@H](C)CCC(=O)NS(=O)(=O)c4cccc(F)c4)CC[C@@H]23)[C@@]2(C)CC[C@@H](O)[C@H](F)[C@@H]12 [Compound 16, N-(3α,7α-Dihydroxyl-4β-fluoro-6α-ethyl-5β-cholan-24-oyl)-m-fluorophenyl sulfonamide]	46	143
CC[C@@H]1[C@@H]2[C@@H](F)[C@H](O)CC[C@]2(C)C2CC[C@@]3(C)C(CCC3[C@H](C)CCNC(=O)NS(=O)(=O)c3ccc(C)cc3)C2[C@@H]1O (stereo partly drawn) [Compound 1, N,N′-(3α,7α-Dihydroxyl-4β-fluoro-6α-ethyl-24-nor-5β-cholan-23-yl)-p-toluene sulfonyl urea]	18	193
CC[C@@H]1[C@@H]2[C@@H](F)[C@H](O)CC[C@]2(C)C2CC[C@@]3(C)C(CCC3[C@H](C)CCNC(=O)NS(=O)(=O)c3cccc(F)c3)C2[C@@H]1O (stereo partly drawn) [Compound 7, N,N′-(3α,7α-Dihydroxyl-4β-fluoro-6α-ethyl-24-nor-5β-cholan-23-yl)-m-fluorobenzene sulfonyl urea]	38	131
CC[C@@H]1[C@@H]2[C@@H](F)[C@H](O)CC[C@]2(C)C2CC[C@@]3(C)C(CCC3[C@H](C)CCNC(=O)NS(=O)(=O)c3ccc(F)cc3)C2[C@@H]1O (stereo partly drawn) [Compound 6, N,N′-(3α,7α-Dihydroxyl-4β-fluoro-6α-ethyl-24-nor-5β-cholan-23-yl)-p-fluorobenzene sulfonyl urea]	32	187
CC[C@H]1[C@@H](O)[C@@H]2[C@H](CC[C@]3(C)[C@@H]([C@H](C)CCC(=O)NS(=O)(=O)C4CC4)CC[C@@H]23)[C@@]2(C)CC[C@@H](O)[C@H](F)[C@@H]12 [Comparative compound B, N-(3α,7α-Dihydroxyl-4β-fluoro-6α-ethyl-5β-cholan-24-oyl)-cyclopropyl sulfonamide, reference compound]	158	132
CC[C@H]1[C@@H](O)[C@@H]2[C@H](CC[C@]3(C)[C@@H]([C@H](C)CCC(=O)NS(=O)(=O)c4cccc(C(F)(F)F)c4)CC[C@@H]23)[C@@]2(C)CC[C@@H](O)[C@H](F)[C@@H]12 [Compound 19, N-(3α,7α-Dihydroxyl-4β-fluoro-6α-ethyl-5β-cholan-24-oyl)-3-trifluoromethylphenyl sulfonamide]	50	136
